Experimental data from PubChem BioAssay (NCI).
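Each compound was tested at five concentrations against cells in 96-well plates for 48 hours. GI50 marks 50% less growth. TGI denotes the concentration required for complete inhibition of growth.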

Legend:
Assay in all cases: NCI tumour cell line growth inhibition, 48 h
SF-295 CNS = tested on: SF-295 CNS
SW-620 colon = tested on: SW-620 colon
TK-10 renal = tested on: TK-10 renal
MDA-MB-435 = tested on: MDA-MB-435
MOLT-4 leukemia = tested on: MOLT-4 leukemia
OVCAR-5 ovarian = tested on: OVCAR-5 ovarian
786-0 renal = tested on: 786-0 renal
MALME-3M melanoma = tested on: MALME-3M melanoma
MCF7 breast = tested on: MCF7 breast
SNB-19 CNS = tested on: SNB-19 CNS
UACC-257 melanoma = tested on: UACC-257 melanoma
A549 NSCLC = tested on: A549 NSCLC
A498 renal = tested on: A498 renal
MDA-N = tested on: MDA-N
K-562 leukemia = tested on: K-562 leukemia
NCI-H23 lung = tested on: NCI-H23 lung
HOP-62 NSCLC = tested on: HOP-62 NSCLC
NCI-H226 lung = tested on: NCI-H226 lung
EKVX NSCLC = tested on: EKVX NSCLC
U251 CNS = tested on: U251 CNS
SK-MEL-5 melanoma = tested on: SK-MEL-5 melanoma
ACHN renal = tested on: ACHN renal
MDA-MB-231 breast = tested on: MDA-MB-231 breast
UO-31 renal = tested on: UO-31 renal
PC-3 prostate = tested on: PC-3 prostate
RPMI-8226 leukemia = tested on: RPMI-8226 leukemia
CCRF-CEM leukemia = tested on: CCRF-CEM leukemia
SF-268 CNS = tested on: SF-268 CNS
NCI/ADR-RES ovarian = tested on: NCI/ADR-RES ovarian
HCT-116 colon = tested on: HCT-116 colon
DU-145 prostate = tested on: DU-145 prostate
LOX IMVI melanoma = tested on: LOX IMVI melanoma
OVCAR-8 ovarian = tested on: OVCAR-8 ovarian
HT29 colon = tested on: HT29 colon
OVCAR-4 ovarian = tested on: OVCAR-4 ovarian
SNB-75 CNS = tested on: SNB-75 CNS
COLO 205 colon = tested on: COLO 205 colon
IGROV1 ovarian = tested on: IGROV1 ovarian
HCT-15 colon = tested on: HCT-15 colon
SK-OV-3 ovarian = tested on: SK-OV-3 ovarian
SN12C renal = tested on: SN12C renal
KM12 colon = tested on: KM12 colon
M14 melanoma = tested on: M14 melanoma
SR leukemia = tested on: SR leukemia
OVCAR-3 ovarian = tested on: OVCAR-3 ovarian
HOP-92 NSCLC = tested on: HOP-92 NSCLC
HS 578T breast = tested on: HS 578T breast
UACC-62 melanoma = tested on: UACC-62 melanoma
SK-MEL-2 melanoma = tested on: SK-MEL-2 melanoma
SK-MEL-28 melanoma = tested on: SK-MEL-28 melanoma
CAKI-1 renal = tested on: CAKI-1 renal
SF-539 CNS = tested on: SF-539 CNS
RXF 393 renal = tested on: RXF 393 renal
T-47D breast = tested on: T-47D breast
NCI-H522 lung = tested on: NCI-H522 lung
HL-60(TB) leukemia = tested on: HL-60(TB) leukemia
NCI-H460 lung = tested on: NCI-H460 lung
BT-549 breast = tested on: BT-549 breast
HCC-2998 colon = tested on: HCC-2998 colon

In the case of `O=C1/C(=C/c2cccs2)NC(=S)N1CN1CCCC(CO)C1` (stereo unspecified), the TGI (SF-295 CNS) is reported as over 100 µM, the TGI (SW-620 colon) is reported as over 100 µM and the TGI (TK-10 renal) is reported as over 100 µM. For the same molecule, the TGI (MDA-MB-435) was over 100 µM, the TGI (MOLT-4 leukemia) was over 100 µM and the TGI (OVCAR-5 ovarian) was over 100 µM. For the same molecule, the TGI (786-0 renal) was over 100 µM, the TGI (MALME-3M melanoma) was over 100 µM and the TGI (MCF7 breast) was over 100 µM. It also gave a TGI (SNB-19 CNS) of over 100 µM, a TGI (UACC-257 melanoma) of over 100 µM and a TGI (A549 NSCLC) of over 100 µM. It also gave a TGI (A498 renal) of over 100 µM, a TGI (MDA-N) of over 100 µM and a TGI (K-562 leukemia) of over 100 µM. It also gave a TGI (NCI-H23 lung) of over 100 µM, a TGI (HOP-62 NSCLC) of over 100 µM and a TGI (NCI-H226 lung) of over 100 µM. It also gave a TGI (EKVX NSCLC) of over 100 µM, a TGI (U251 CNS) of over 100 µM and a TGI (SK-MEL-5 melanoma) of over 100 µM. For the same molecule, the TGI (ACHN renal) was over 100 µM, the TGI (MDA-MB-231 breast) was over 100 µM and the TGI (UO-31 renal) was over 100 µM. The TGI (PC-3 prostate) was over 100 µM, the TGI (RPMI-8226 leukemia) was over 100 µM and the TGI (CCRF-CEM leukemia) was over 100 µM. It also gave a TGI (SF-268 CNS) of over 100 µM, a TGI (NCI/ADR-RES ovarian) of over 100 µM and a TGI (HCT-116 colon) of over 100 µM. The TGI (DU-145 prostate) was over 100 µM, the TGI (LOX IMVI melanoma) was over 100 µM and the TGI (OVCAR-8 ovarian) was over 100 µM. It also gave a TGI (HT29 colon) of over 100 µM, a TGI (OVCAR-4 ovarian) of over 100 µM and a TGI (SNB-75 CNS) of over 100 µM. The TGI (COLO 205 colon) was over 100 µM, the TGI (IGROV1 ovarian) was over 100 µM and the TGI (HCT-15 colon) was over 100 µM. It also gave a TGI (SK-OV-3 ovarian) of over 100 µM, a TGI (SN12C renal) of over 100 µM and a TGI (KM12 colon) of over 100 µM. For the same molecule, the TGI (M14 melanoma) was over 100 µM, the TGI (SR leukemia) was over 100 µM and the TGI (OVCAR-3 ovarian) was over 100 µM. It also gave a TGI (HOP-92 NSCLC) of over 100 µM, a TGI (HS 578T breast) of over 100 µM and a TGI (UACC-62 melanoma) of over 100 µM. The TGI (SK-MEL-2 melanoma) was over 100 µM and the TGI (SK-MEL-28 melanoma) was over 100 µM.

In the case of `O=S(=O)(Nc1ccc2ccccc2c1)c1ccc(-c2cnc(C3CC3)o2)cc1`, the GI50 (SF-295 CNS) is reported as 0.452 µM, the TGI (SF-295 CNS) is reported as 5.46 µM and the GI50 (SW-620 colon) is reported as 0.468 µM. The TGI (SW-620 colon) was 18.3 µM, the GI50 (TK-10 renal) was 5.81 µM and the TGI (TK-10 renal) was over 100 µM. It also gave a GI50 (CAKI-1 renal) of 0.539 µM, a TGI (CAKI-1 renal) of 38 µM and a GI50 (MDA-MB-435) of 0.214 µM. For the same molecule, the TGI (MDA-MB-435) was 0.598 µM, the GI50 (MOLT-4 leukemia) was 0.873 µM and the TGI (MOLT-4 leukemia) was over 100 µM. The GI50 (OVCAR-5 ovarian) was 3.01 µM, the TGI (OVCAR-5 ovarian) was 23.4 µM and the GI50 (786-0 renal) was 3.1 µM. The TGI (786-0 renal) was 18.7 µM, the GI50 (MALME-3M melanoma) was 0.999 µM and the TGI (MALME-3M melanoma) was 24 µM. The GI50 (MCF7 breast) was 0.478 µM, the TGI (MCF7 breast) was 25 µM and the GI50 (SNB-19 CNS) was 1.49 µM. For the same molecule, the TGI (SNB-19 CNS) was over 100 µM, the GI50 (UACC-257 melanoma) was 10.4 µM and the TGI (UACC-257 melanoma) was 31.5 µM. For the same molecule, the GI50 (A549 NSCLC) was 1.74 µM, the TGI (A549 NSCLC) was over 100 µM and the GI50 (A498 renal) was 0.462 µM. The TGI (A498 renal) was 5.28 µM, the GI50 (K-562 leukemia) was 0.394 µM and the TGI (K-562 leukemia) was over 100 µM. It also gave a GI50 (NCI-H23 lung) of 3.38 µM, a TGI (NCI-H23 lung) of 22.5 µM and a GI50 (HOP-62 NSCLC) of 1.3 µM. It also gave a TGI (HOP-62 NSCLC) of 17.1 µM, a GI50 (NCI-H226 lung) of 3.99 µM and a TGI (NCI-H226 lung) of 20.4 µM. The GI50 (SF-539 CNS) was 1.17 µM, the TGI (SF-539 CNS) was 3.92 µM and the GI50 (EKVX NSCLC) was 2.76 µM. It also gave a TGI (EKVX NSCLC) of 59.9 µM, a GI50 (U251 CNS) of 1.25 µM and a TGI (U251 CNS) of 15.7 µM. For the same molecule, the GI50 (SK-MEL-5 melanoma) was 0.829 µM, the TGI (SK-MEL-5 melanoma) was 12.7 µM and the GI50 (RXF 393 renal) was 0.573 µM. It also gave a TGI (RXF 393 renal) of 3.92 µM, a GI50 (ACHN renal) of 2.61 µM and a TGI (ACHN renal) of 42.8 µM. The GI50 (T-47D breast) was 1.01 µM, the TGI (T-47D breast) was 58.3 µM and the GI50 (MDA-MB-231 breast) was 2.81 µM. For the same molecule, the TGI (MDA-MB-231 breast) was 14.2 µM, the GI50 (UO-31 renal) was 1.68 µM and the TGI (UO-31 renal) was 18.8 µM. It also gave a GI50 (PC-3 prostate) of 1.69 µM, a TGI (PC-3 prostate) of 19.1 µM and a GI50 (RPMI-8226 leukemia) of 3.18 µM. It also gave a TGI (RPMI-8226 leukemia) of 24.8 µM, a GI50 (NCI-H522 lung) of 0.766 µM and a TGI (NCI-H522 lung) of 14.5 µM. For the same molecule, the GI50 (CCRF-CEM leukemia) was 1.64 µM, the TGI (CCRF-CEM leukemia) was over 100 µM and the GI50 (SF-268 CNS) was 3.44 µM. For the same molecule, the TGI (SF-268 CNS) was 24.5 µM, the GI50 (NCI/ADR-RES ovarian) was 0.713 µM and the TGI (NCI/ADR-RES ovarian) was 5.81 µM. For the same molecule, the GI50 (HCT-116 colon) was 0.746 µM, the TGI (HCT-116 colon) was 12.7 µM and the GI50 (DU-145 prostate) was 2.96 µM. For the same molecule, the TGI (DU-145 prostate) was 20.4 µM, the GI50 (LOX IMVI melanoma) was 0.725 µM and the TGI (LOX IMVI melanoma) was 17.1 µM. It also gave a GI50 (OVCAR-8 ovarian) of 2.88 µM, a TGI (OVCAR-8 ovarian) of 67.1 µM and a GI50 (HT29 colon) of 0.429 µM. The TGI (HT29 colon) was 17.6 µM, the GI50 (OVCAR-4 ovarian) was 3.22 µM and the TGI (OVCAR-4 ovarian) was 79.9 µM. For the same molecule, the GI50 (SNB-75 CNS) was 0.616 µM, the TGI (SNB-75 CNS) was 6.07 µM and the GI50 (COLO 205 colon) was 1.79 µM. For the same molecule, the TGI (COLO 205 colon) was 9.22 µM, the GI50 (IGROV1 ovarian) was 1.08 µM and the TGI (IGROV1 ovarian) was 14 µM. The GI50 (HL-60(TB) leukemia) was 0.407 µM, the TGI (HL-60(TB) leukemia) was 6.99 µM and the GI50 (HCT-15 colon) was 0.557 µM. The TGI (HCT-15 colon) was 19.2 µM, the GI50 (SK-OV-3 ovarian) was 1.54 µM and the TGI (SK-OV-3 ovarian) was 32.3 µM. It also gave a GI50 (SN12C renal) of 3.69 µM, a TGI (SN12C renal) of 17.3 µM and a GI50 (KM12 colon) of 0.624 µM. The TGI (KM12 colon) was 14.7 µM, the GI50 (M14 melanoma) was 0.701 µM and the TGI (M14 melanoma) was 14.9 µM. For the same molecule, the GI50 (SR leukemia) was 0.377 µM, the TGI (SR leukemia) was over 100 µM and the GI50 (OVCAR-3 ovarian) was 0.435 µM. It also gave a TGI (OVCAR-3 ovarian) of 5.37 µM, a GI50 (HOP-92 NSCLC) of 3.68 µM and a TGI (HOP-92 NSCLC) of 30.9 µM. For the same molecule, the GI50 (NCI-H460 lung) was 0.56 µM, the TGI (NCI-H460 lung) was 10.9 µM and the GI50 (HS 578T breast) was 0.811 µM. It also gave a TGI (HS 578T breast) of 13.2 µM, a GI50 (UACC-62 melanoma) of 0.914 µM and a TGI (UACC-62 melanoma) of 14.5 µM. For the same molecule, the GI50 (SK-MEL-2 melanoma) was 1.43 µM, the TGI (SK-MEL-2 melanoma) was 20.6 µM and the GI50 (SK-MEL-28 melanoma) was 4.8 µM. It also gave a TGI (SK-MEL-28 melanoma) of 20.8 µM, a GI50 (BT-549 breast) of 2.81 µM and a TGI (BT-549 breast) of 19.3 µM. It also gave a GI50 (HCC-2998 colon) of 1.48 µM and a TGI (HCC-2998 colon) of 6.06 µM.
